{
  "source": "patent US8318657B2",
  "about": "“Methods and compositions for preventing and/or treating pancreatitis” (Flinders Technologies Pty Ltd., priority 2005, dated 2012)",
  "key": {"[1]": {"tested_on": "hyperstimulated pancreatic exocrine secretion", "test": "Hyperstimulated (CCK/secretin) pancreatic exocrine secretion in anaesthetised possums", "format": "in vivo, Australian Brush-tailed possums (Trichosurus vulpecula)", "details": "CCK/secretin 5 ug/kg of each/hour i.v., galanin 0.5 or galantide 1.5 nmol/kg bolus then 2 nmol/kg/h, decrease of elevated volume, preliminary study", "method": "The experimental setup was similar to as described above. In the control group after an initial stabilization period of 15 minutes, the pancreatic juice was collected at half hourly intervals for one hour. This established the basal secretion rate. Then a mixture of cholecystokinin and secretin (CCK-SEC) was infused i.v at 5 μg (of each peptide)/kg/hr for the entire duration of the experiment.\nThe galanin or galantide infusion was continued for one and a half hour and then stopped. The CCK-SEC infusion was further continued for one hour. During the entire course of experiment, pancreatic juice was collected at half hourly intervals.\n(§1) The quantity of pancreatic exocrine secretion was estimated gravimetrically (basal secretion and stimulated secretion)."}, "[2]": {"tested_on": "possum model of acute pancreatitis (AP)", "test": "Possum model of acute pancreatitis (pancreatic duct ligation + CCK/secretin) with galanin or galantide", "format": "in vivo, Australian Brush-tailed possums (Trichosurus vulpecula)", "details": "for plasma amylase activity / plasma lipase activity / pancreatic vascular perfusion (PVP) / pancreatic oedema: possum AP; for pancreatic oedema: pancreas harvested 8 hours post-AP induction, H&E, point counting, treatment from 15 minutes prior to AP induction, decrease of AP-induced oedema"}, "[3]": {"tested_on": "basal pancreatic exocrine secretion", "test": "Basal pancreatic exocrine secretion in anaesthetised possums", "format": "in vivo, Australian Brush-tailed possums (Trichosurus vulpecula)", "details": "galanin 0.5 or galantide 1.5 nmol/kg bolus then 2 nmol/kg/h i.v., preliminary study", "method": "The possums were anaesthetized as described above. The left femoral vein was cannulated with two cannulae (1.05 mm OD, 0.35 ID) for administration of anaesthetic drugs and normal saline. […] A midline laparotomy was then performed. With minimal handling of tissues, the duodenum with the sphincter of Oddi was placed on a platform and stabilised with pins. The pancreatic duct component of the sphincter of Oddi was identified with the aid of a dissecting microscope and opened with micro-scissors. It was then cannulated (1.5 mm OD, 0.9 mm ID) advanced 4-5 mm and ligated with 5-0 prolene suture. This cannula was left open to collect pancreatic juice. After an initial stabilization period of 15 minutes, the pancreatic juice was collected every 30 minutes for 3.5 hours.\nas §1"}, "[4]": {"tested_on": "caerulein-induced acute pancreatitis (AP) in mice", "test": "Caerulein-induced acute pancreatitis in mice (mild model, 7 hourly i.p. injections) with galanin or galanin antagonists", "format": "in vivo, mouse (female Balb C or Swiss)", "details": "for pancreatic acinar cell necrosis score: histology scoring system"}, "[5]": {"tested_on": "mice without acute pancreatitis", "test": "Control groups: mice given galanin or galanin antagonist alone (saline, no caerulein)", "details": "mice without AP"}, "[6]": {"details": "GT 1.5 nmol/kg bolus then 2 nmol/kg/h i.v., delayed: initiated 2 hours post-AP induction"}, "[7]": {"details": "GT 1.5 nmol/kg bolus then 2 nmol/kg/h i.v., delayed: initiated 2 hours post-AP induction, listed as GT"}, "[8]": {"details": "i.v. bolus (GL 0.5, GT 1.5 nmol/kg) then 2 nmol/kg/h continuous infusion, initiated 15 minutes prior to AP induction, effect on AP-induced rise"}, "[9]": {"details": "i.v. bolus (GL 0.5, GT 1.5 nmol/kg) then 2 nmol/kg/h continuous infusion, initiated 15 minutes prior to AP induction, effect on AP-induced rise, listed as GT"}, "[10]": {"details": "mouse caerulein AP, 20 nmol/kg i.p. with each caerulein injection, reduction of AP-induced level"}, "[11]": {"details": "mouse caerulein AP, 40 nmol/kg i.p. with each caerulein injection, reduction of AP-induced level"}, "[12]": {"details": "mouse caerulein AP, GT 40 nmol/kg, treatment delayed for 2 hours post-AP induction"}},
  "note": "“Also recorded” adds a separate entry of the source.",
  "data": [
    {"smiles": "CSCC[C@H](NC(=O)[C@H](CC(C)C)NC(=O)CNC(=O)[C@H](Cc1ccccc1)NC(=O)[C@H](Cc1ccccc1)NC(=O)[C@H](CCC(N)=O)NC(=O)[C@H](CCC(N)=O)NC(=O)[C@@H]1CCCN1C(=O)CNC(=O)[C@H](CC(C)C)NC(=O)[C@H](CC(C)C)NC(=O)[C@H](Cc1ccc(O)cc1)NC(=O)CNC(=O)[C@H](C)NC(=O)[C@H](CO)NC(=O)[C@H](CC(N)=O)NC(=O)[C@H](CC(C)C)NC(=O)[C@@H](NC(=O)[C@H](Cc1c[nH]c2ccccc12)NC(=O)CN)[C@@H](C)O)C(N)=O", "note": "[Galantide, Galanin(1-13)-substance P(5-11) amide]", "values": [
      {"measurement": "hyperstimulated pancreatic exocrine secretion (volume of pancreatic juice)", "setting": "[1]", "result": "does reduce hyper-stimulated exocrine secretion"},
      {"measurement": "hyperstimulated pancreatic exocrine secretion (volume of pancreatic juice)", "setting": "[1]; listed as galantide", "result": "decreased"},
      {"measurement": "plasma amylase activity", "setting": "[2]; [6]", "result": "reduces plasma amylase and lipase secretion"},
      {"measurement": "plasma lipase activity", "setting": "[2]; [6]", "result": "reduces plasma amylase and lipase secretion"},
      {"measurement": "plasma amylase activity", "setting": "[2]; [7]", "result": "reduced the AP-induced rise in plasma amylase activity"},
      {"measurement": "plasma lipase activity", "setting": "[2]; [7]", "result": "suppressed the AP-induced rise in plasma lipase activity"},
      {"measurement": "pancreatic vascular perfusion (PVP)", "setting": "[2]; i.v. bolus (GL 0.5, GT 1.5 nmol/kg) then 2 nmol/kg/h continuous infusion, initiated 15 minutes prior to AP induction", "result": "increases PVP from the outset"},
      {"measurement": "plasma amylase activity", "setting": "[2]; [8]", "result": "completed prevented the pancreatitis-induced increase in plasma amylase"},
      {"measurement": "plasma lipase activity", "setting": "[2]; [8]", "result": "markedly depressed the pancreatitis-induced increase in plasma lipase"},
      {"measurement": "plasma amylase activity", "setting": "[2]; [9]", "result": "completely suppressed the AP-induced rise in plasma amylase activity"},
      {"measurement": "plasma lipase activity", "setting": "[2]; [9]", "result": "markedly suppressed the AP-induced rise in plasma lipase activity"},
      {"measurement": "pancreatic vascular perfusion (PVP)", "setting": "[2]; i.v. bolus (GL 0.5, GT 1.5 nmol/kg) then 2 nmol/kg/h continuous infusion, initiated 15 minutes prior to AP induction, listed as GT", "result": "sustained fall in PVP"},
      {"measurement": "pancreatic oedema", "setting": "[2]", "result": "reduced"},
      {"measurement": "pancreatic oedema", "setting": "[2]; listed as GT", "result": "significantly decreased"},
      {"measurement": "severity of pancreatitis (summary)", "setting": "[2]; possums, administration prior to the onset and also after onset of acute pancreatitis", "result": "reduces the severity of pancreatitis"},
      {"measurement": "basal rate of pancreatic exocrine secretion (volume)", "setting": "[3]", "result": "does not influence basal exocrine secretion (volume)"},
      {"measurement": "pancreatic myeloperoxidase (MPO) activity", "setting": "[4]; mouse caerulein AP, 10 nmol/kg i.p. with each caerulein injection, reduction of AP-induced level, listed as GT", "result": "also effective; also recorded: significantly reduced"},
      {"measurement": "pancreatic tissue architecture / AP-induced pancreatic damage (histological sections)", "setting": "[4]; mouse caerulein AP, 20 nmol/kg", "result": "reduced the acute pancreatitis-induced pancreatic damage"},
      {"measurement": "pancreatic myeloperoxidase (MPO) activity", "setting": "[4]; [10]", "result": "significantly reduced"},
      {"measurement": "plasma amylase activity", "setting": "[4]; [10]", "result": "reduced the plasma amylase level"},
      {"measurement": "plasma lipase activity", "setting": "[4]; [10]", "result": "significantly reduced"},
      {"measurement": "plasma amylase activity", "setting": "[4]; mouse caerulein AP, 20 nmol/kg i.p. with each caerulein injection, reduction of AP-induced level, listed as GT", "result": "significantly reduced"},
      {"measurement": "pancreatic acinar cell necrosis score", "setting": "[4]; mouse caerulein AP, 20 nmol/kg", "result": "reduced the pancreatitis-induced necrosis"},
      {"measurement": "pancreatic acinar cell necrosis score", "setting": "[4]; mouse caerulein AP, 20 nmol/kg, listed as GT", "result": "significantly reduced the necrosis score"},
      {"measurement": "histology score (pancreatic tissue damage)", "setting": "[4]; mouse caerulein AP, 20 nmol/kg, scoring system", "result": "significantly reduced the histology score"},
      {"measurement": "plasma amylase activity", "setting": "[4]; [11]", "result": "reduced the plasma amylase level"},
      {"measurement": "plasma lipase activity", "setting": "[4]; [11]", "result": "significantly reduced"},
      {"measurement": "plasma amylase activity", "setting": "[4]; mouse caerulein AP, 40 nmol/kg i.p. with each caerulein injection, reduction of AP-induced level, listed as GT", "result": "significantly reduced"},
      {"measurement": "pancreatic myeloperoxidase (MPO) activity", "setting": "[4]; mouse caerulein AP, 40 nmol/kg i.p. with each caerulein injection, vs AP alone", "result": "significantly reduced"},
      {"measurement": "plasma amylase activity", "setting": "[4]; [12]", "result": "significantly reduced"},
      {"measurement": "plasma lipase activity", "setting": "[4]; [12]", "result": "significantly reduced"},
      {"measurement": "pancreatitis-induced plasma hyperenzymemia", "setting": "[4]; mouse caerulein AP, galantide administered 2 hours post pancreatitis onset, preliminary results", "result": "reduces the pancreatitis-induced plasma hyperenzymemia"},
      {"measurement": "severity of pancreatitis (summary)", "setting": "[4]; mouse pancreatitis studies", "result": "has the ability to reduce the severity of pancreatitis"},
      {"measurement": "pancreatic myeloperoxidase (MPO) activity", "setting": "[5]; 20 nmol/kg alone", "result": "did induce a low level of pancreatic MPO"},
      {"measurement": "pancreatic tissue architecture (histological sections)", "setting": "[5]; 20 nmol/kg alone", "result": "near normal pancreatic architecture"},
      {"measurement": "plasma amylase activity", "setting": "[5]; 20 nmol/kg alone, vs baseline", "result": "did not increase plasma amylase activity above baseline activity"},
      {"measurement": "plasma lipase activity", "setting": "[5]; 20 nmol/kg alone, vs baseline", "result": "did not increase plasma lipase activity above baseline activity"},
      {"measurement": "pancreatic myeloperoxidase (MPO) activity", "setting": "[5]; 40 nmol/kg alone", "result": "did induce a low level of pancreatic MPO"}
    ]}
  ]
}
